Entries after “also recorded” stand apart in the source; their conditions may differ. Where two headings read alike, the source gives them in different places.
Columns and labels:
tail lymphedema [1] = experiment: Indocyanine green lymphangiography of tail (intraperitoneal injection); format: in vivo, BALB/c mice; settings: day 45; for ICG fluorescent intensity compared to control: 48 hours after injection
Procedure: On Day 45, animals were anesthetized using 2.5% isofluorane, and 5 μL of 2.5 mg/mL indocyanine green (ICG) was injected into the distal end of each animal's tail 15 minutes prior to imaging. The SPY Elite Fluorescence Imaging System (Novadaq Technologies, BC, Canada) was used to capture fluorescent images and heat maps of the tails at 0, 1, 2, 3, 6, 12, 24, and 48 hours following ICG injection. Capture conditions were kept constant throughout the trial. Fluorescent intensity of the tails at each time point was quantified using a previously described method for measuring cell fluorescence in ImageJ [4, 7]. Values were then recorded and plotted using GraphPad Prism 7. Percent change in fluorescent intensity from the peak fluorescent uptake at 6 hours was used to measure ICG clearance.

tail lymphedema [2] = experiment: Lymphatic vessel density, podoplanin immunohistochemistry of tail; format: in vivo, BALB/c mice; settings: 0.08 mg/kg daily i.p.
Procedure: (§1) Tail specimens were collected on post-operative day 47. Specimens were harvested to include 1 cm proximal and 1 cm distal the wound, then divided to separate proximal and distal portions. Tails were inked to enable proper orientation, fixed in 10% neutral buffered formalin overnight, decalcified in 10% EDTA (pH: 7.3) for 6 days at 4° C., embedded in paraffin, sectioned at 3-5 μm, then stained with hematoxylin and eosin (H&E) or via immunohistochemical techniques. In summary, sections were deparaffinized, underwent antigen retrieval with sodium citrate buffer, incubated overnight with the primary antibody (1:200) at 4° C., washed, incubated with a suitable secondary antibody (1:200), then stained with immPACT DAB Substrate (Vector Laboratories, Inc, Burlingame, CA) and counterstained with Delafield Hematoxylin (Sigma-Aldrich, USA) diluted 1:4. Podoplanin (clone 8.1.1; sc-53533, Santa Cruz Biotechnology, Inc., Dallas, TX) was used to immunohistochemically mark lymphatics in paraffin embedded tail sections.
Slides were counterstained with hematoxylin and mounted. All images were obtained with a Keyence BZ-X700 microscope (Itasca, IL) and epidermal and dermal thickness was measured using ImageJ (National Institutes of Health, Betheseda, MD). The thickest part of the epidermis and dermis was measured in 5 high-power fields per section, as previously described. On the immunohistochemically stained slides, podoplanin stained vessels in the dermis and subcutis were quantified in ImageJ. Two high-power fields per section were randomly selected and then analyzed by a blinded reviewer. The reviewer scored the number of podoplanin stained vessels and the area (mm^2) of the dermis and subcutaneous tissue in each image. […]

[3] = system: lymphatic endothelial cell; settings: in vitro; earlier work [12,13]; cited from earlier work
tail lymphedema [4] = experiment: Dermal and epidermal thickness, H&E stained tails; format: in vivo, BALB/c mice; settings: 0.08 mg/kg daily i.p.; for mean epidermal tail thickness / dermal thickness: mean±standard error
Procedure: as §1
Slides were counterstained with hematoxylin and mounted. All images were obtained with a Keyence BZ-X700 microscope (Itasca, IL) and epidermal and dermal thickness was measured using ImageJ (National Institutes of Health, Betheseda, MD). The thickest part of the epidermis and dermis was measured in 5 high-power fields per section, as previously described. On the immunohistochemically stained slides, podoplanin stained vessels in the dermis and subcutis were quantified in ImageJ. Two high-power fields per section were randomly selected and then analyzed by a blinded reviewer. The reviewer scored the number of podoplanin stained vessels and the area (mm^2) of the dermis and subcutaneous tissue in each image. Lymphatic vessel density was calculated from the absolute lymphatic number normalized to the dermal and subcutaneous area measured (number of lymphatics/mm^2).^2 For the immunofluorescent stained slides, LYVE-1 stained vessels were quantified with ImageJ, to assess included lymphatic density, lymphatic vessel width, inter-lymphatic vessel distance, branching points, loops and blind-ended sacs.

tail lymphedema [5] = experiment: Oral administration, tail lymphedema, lymphatic clearance; format: in vivo, BALB/c mice; settings: oral gavage for 6 weeks
Procedure: (§2) Oral administration experiments were performed on 30 adult BALB/c mice, 12 to 14 weeks old, and weighing between 21 and 30 g. Surgical excision of lymphatic vessels at 20-mm from the base of the tail was performed in order to induce secondary lymphedema. Mice receive 9-cis RA dissolved in sunflower oil via oral gavage for 6 weeks in accordance to the dosing regimes in Table 3.

postsurgical lymphedema = settings: daily intraperitoneal injections 0.08 mg/kg; earlier work [13]; cited from earlier work
diaphragmatic lymphatics = experiment: India ink staining of the diaphragm; format: in vivo, BALB/c mice; settings: 0.08 mg/kg daily i.p.
Procedure: On post-operative day 47, each animal was intraperitoneally injected with 5 cc of India Ink which was diluted 2-folds with distilled water. Ten minutes after the injection of India ink, the animal was euthanized and the diaphragms were harvested in their entirety. The specimens were then rinsed with running tap water for 1 minute and mounted on the stage of a dissecting microscope equipped with a digital camera. The whole-mount specimen, exclusive of the central tendon, was then analyzed for the passive lymphatic absorption of India ink utilizing the percent stained area on ImageJ.

[6] = mouse, in vivo, po
Procedure: as §2

CC1=C(/C=C/C(C)=C\C=C\C(C)=C\C(=O)O)C(C)(C)CCC1 [9-cis RA, 9-cis retinoic acid]
percent change of ICG fluorescent intensity compared to control (tail lymphedema [1]; 24 hours after ICG injection, all treatment groups): significant decrease in the percent change of fluorescent intensity compared to the control | ICG fluorescent intensity compared to control (tail lymphedema [1]; 7-day group): no longer significant from the control | ICG fluorescent intensity compared to control (tail lymphedema [1]; 14-day, 42-day and 7-day delayed groups): significant decrease in fluorescent intensity | lymphatic vessel density compared to control (tail lymphedema [2]; 7-day delay group): strong trend towards improvement but not statistical significance | lymphatic vessel density compared to control (tail lymphedema [2]; 14-day group): trend towards increased lymphatic density that did not reach statistical significance; also recorded: trending towards significance | lymphatic vessel density compared to control (tail lymphedema [2]; 42-day/45-day group, tails distal to wound, day 47): significantly increased compared to the controls; also recorded: statistically significant difference | lymphatic endothelial cell proliferation, migration and vessel formation [3]: significantly increased | dermal thickening compared to control (tail lymphedema [4]; 7-day group): no significant effect on tail lymphedema or dermal thickening | mean epidermal tail thickness (tail lymphedema [4]; 7-day group): 109.2±10.21 μm | dermal thickness (tail lymphedema [4]; 14-day group): 352.4±21.29 μm | mean epidermal tail thickness (tail lymphedema [4]; 14-day group): 52.07±2.616 μm | dermal thickness (tail lymphedema [4]; 45-day group): 525.2±25.09 μm | mean epidermal tail thickness (tail lymphedema [4]; 45-day group): 83.14±8.099 μm | dermal thickness (tail lymphedema [4]; delay group): 502±30.17 μm | mean epidermal tail thickness (tail lymphedema [4]; delay group): 73.51±10.94 μm | lymphatic clearance (tail lymphedema [5]; high dose 30 mg/kg): improves lymphatic clearance | lymphatic clearance (tail lymphedema [5]; low dose 10 mg/kg): improves lymphatic clearance | prevention of postsurgical lymphedema (postsurgical lymphedema): significantly prevents development of lymphedema; also recorded: prevents postsurgical lymphedema | percent stained area of diaphragms (India ink) vs vehicle control (diaphragmatic lymphatics; 14-day group): marginal significance | percent stained area of diaphragms (India ink) vs vehicle control (diaphragmatic lymphatics; groups other than 14-day): essentially no differences | systemic toxicity by liver and kidney function tests (AST, ALT, BUN) ([6]; 10 mg/kg): minimal systemic toxicity | systemic toxicity by liver and kidney function tests (AST, ALT, BUN) ([6]; 30 mg/kg): minimal systemic toxicity
